Patent US7968097B2, “Identification of Hla-A2-presented T-cell epitopes derived from the oncofoetal antigen-immature laminin receptor protein and uses thereof” (Immatics Biotechnologies GmbH, priority 2005, dated 2011)
Where “and” joins values, the source holds several entries; their conditions need not be identical. Equal entries are not always repeated. Entries after “also recorded” stand apart in the source; their conditions may differ.

Tests used:
[1] = tested on: CD8+ T cells of HLA-A*0201+ individuals; experiment: Generation of peptide-specific CTL lines with peptide-pulsed matured DC; type: cell-based, human; details: for generation of CTL lines from healthy HLA-A*0201+ donors: fully matured DC pulsed with the peptide; for generation of autologous peptide-specific CTL lines from patients: one patient with CLL and another with AML, tested against autologous and allogeneic HLA-A2-matched target cells
Excerpt: The identification of T-helper cell epitopes of tumor associated antigens remains an important task in anti-tumor immunotherapy. To identify T cell-binding epitopes deduced from the OFA-iLR protein, 14 peptides were synthesized (see below) that were predicted by the computer programs PAProC (http://www.uni-tuebingen.de/uni/kxi/) and SYFPEITHY (http://www.syfpeithi.de) to bind to the HLA-A*0201 molecule.
(§1) CTL derived from healthy HLA-A*0201^+ individuals were generated using a protocol described elsewhere (Zeis M, Siegel S, Schmitz M et al. Induction of cytotoxic T lymphocytes against hematologic neoplasms by survivin RNA-transfected dendritic cells. J Immunol. 2003; 170, 5391-5397.). For the induction of autologous OFA/ILR, peptide-specific CTL obtained from patients with AML and CLL, CD8^+ T cells were separated from PBMC using immunomagnetic beads (MACS®, Miltenyi, Bergisch-Gladbach, Germany), cultured with autologous OFA/iLR peptide-pulsed fully matured DC and restimulated with autologous peptide-pulsed PBMC in the presence of IL-2 (1 ng/ml, CellConcepts, Weisskirch, Germany). After at least four weekly restimulations, CTL reactivity was determined in a conventional 4 h ^51Chromium release assay. Cold target inhibition assays and antibody blocking experiments were performed as previously described (Zeis M, Siegel S, Schmitz M et al. Induction of cytotoxic T lymphocytes against hematologic neoplasms by survivin RNA-transfected dendritic cells. J Immunol. 2003; 170, 5391-5397.).

[2] = tested on: tumor cells from CLL patients; experiment: 51Chromium release assay, peptide-specific CTL on tumor cells from CLL patients; type: cell-based, human; details: for A*02-positive CLL patients in whom the peptide is a tumor-associated antigen: summary of two experiments; for recognition of CLL cells from A*02-negative patients by peptide-specific T cells / recognition of CLL cells from A*02-positive patients by peptide-specific T cells: two experiments
Excerpt: as §1
T cells specific for HLA-A*02-restricted ILR1 were tested on tumor cells from CLL patients (5 patients; samples CLL-01, -02, -03, -05, -06). […] The experiment was repeated (FIG. 3A) with 8 more CLL patients, of whom 4/8 were A*02-positive. […] In summary: • 1. ILR1 is a tumor-associated antigen in 100% (7/7) of A*02-positive CLL patients tested. • 2. ILR1 is restricted by HLA-A*02. Target: T2
T cells specific for HLA-A*02-restricted ILR2 were tested on tumor cells from CLL patients (8 patients; samples CLL-01, -02, -03, -04, -05, -06, -07, -08). […] The experiment was repeated (FIG. 9B) with 5 more CLL patients, of whom 3/5 were A*02-positive. […] Conclusion-and-summary: • 1. ILR2 is a tumor associated antigen in 100% (7/7) of A*02-positive CLL patients tested. • 2. ILR2 is restricted by HLA-A*02. Target: T2

[3] = tested on: CD8+ lymphocytes from peripheral blood of HLA-A2+ donors; experiment: Tetramer analysis of microsphere driven expansion of peptide-specific CD8+ lymphocytes; type: cell-based, human; details: for Evaluable donors with clearly positive T-cell responses: of 5 evaluable HLA-A2+ donors, microspheres with anti-CD28 plus high density A*0201/peptide; for Evaluable stimulations with clearly positive T-cell responses: of 53 (RPS-001) or 54 (RPS-002) evaluable stimulations among all evaluable donors
Excerpt: 1×10^6 CD8+ enriched PBMCs per well of the healthy HLA-A2+ donor HBC-065 were stimulated weekly in one well with microspheres coupled to anti-CD28 plus high density tumor antigen A*0201/RPS-001 (upper panel) or high density tumor antigen A*0201/RPS-002 (lower panel) as shown before [Walter, S, et al. Cutting Edge: Predetermined avidity of human CD8 T cells expanded on calibrated MHC/anti-CD28-coated microspheres. J. Immunol. 171(10):4974-8, 2003] with minor modifications. After three stimulations in vitro, cells of both wells were stained with antibody CD8 FITC plus tetramer A*0201/RPS-001 APC and A*0201/RPS-002 PE. Cells are gated on the lymphocyte population (left and middle panel) or on the CD8+ lymphocyte population (right panel). Numbers represent percentage of tetramer^+ within CD8+ lymphocytes. RPS-001=LLAARAIVAI (SEQ ID-No. 1); RPS-002=ALCNTDSPL (SEQ ID-No. 2)
Table 6: Summary of tetramer analysis of microsphere driven expansions of A2/RPS-001 and A2/RPS-002 specific CD8^+ lymphocytes from peripheral blood. 1×10^6 CD8^+ enriched PBMCs per well were stimulated as in FIG. 12 with microspheres coupled to anti-CD28 plus high density tumor antigen A*0201/RPS-001 or high density tumor antigen A*0201/RPS-002. Indicated are number of evaluable HLA-A2^+ donors, number of evaluable donors with at least one clearly positive response, number of evaluable stimulations among all evaluable donors and number of evaluable stimulations with clearly positive responses. RPS001=LLAARAIVAI (SEQ ID-NO: 1); RPS-002=ALCNTDSPL (SEQ ID-NO: 2)

[4] = tested on: T cells of HLA-A*0201+ patients with hematological malignancies; experiment: IFN-γ ELISPOT, pooled HLA-A*0201+ AML, CLL and multiple myeloma patients; type: cell-based, human; details: 50 HLA-A*0201+ patients with hematological malignancies
Description: To determine the frequency of iLR1- and iLR2-specific T cells in HLAA*0201^+ AML, CLL and multiple myeloma patients, ELISPOT IFNI’ secretion assay (Tables 3-5) were performed.

[5] = tested on: PBMC of HLA-A*02 positive CLL patients; experiment: IFN-γ ELISPOT, CLL patients; details: for samples with significant (>20) CTL responses against peptide: CLL patient samples, IFN-γ ELISPOT; for # of positively stained spots (IFN-γ ELISPOT): CLL patients, HLA-A*02 positive, one value per patient (table line), T cells cultured seven days with IL-2
Description: (§2) To determine the frequency of OFA/iLR peptide-specific T cells in patients, ELISPOT-assays were performed using the Interferon-γ-ELISPOT-Kit (Becton Dickinson, Heidelberg, Germany) according to manufacturer's instructions.
(§3) Prior to analysis, T cells from patients and healthy donors had been kept in culture for seven days in the presence of Interleukin-2 (IL microgram/10^6 PBMC/milliliter).

[6] = tested on: PBMC from healthy donors, CD34-positive progenitor cells, bone marrow cells; experiment: 51Chromium release assay, peptide-specific CTL on normal cells; type: cell-based, human; details: for recognition of bone marrow cells by peptide-specific T cells: A*02-positive donors (BM-01, -02); for recognition of CD34-positive bone-marrow-derived progenitor cells by peptide-specific T cells: A*02-positive donors (CD34-01, -02)
Excerpt: as §1
T cells recognizing the ILR1-peptide were tested on K562 [human pro-erythroblastic leukemia cell-line, also known as chronic myelogenous leukemia (CML) cell line, which, due to extremely low levels of HLA, functions as a control for excluding NK cells as effector cells], IND (human B lymphoblastoid cell line), Karpas-422 (human B cell lymphoma), Balm-3 (human non-Burkitt B-lymphoma cell line), U266 (human multiple myeloma), REH (Human B cell precursor leukemia), MEC-1 (human chronic B cell leukemia). The same T cells were used to test autologous and allogeneic PBMC from healthy donors as controls. […] The response is not directed against allogeneic major or minor histocompatibility complex antigens. • 3. ILR1 peptide is recognized in an HLA-restricted fashion. • 4. The restriction is allele-specific (specific for A*02). Target: AML

[7] = tested on: PBMC of HLA-A*02 positive healthy donors; experiment: IFN-γ ELISPOT, healthy donors; details: healthy donors, HLA-A*02 positive; one value per donor (table line); T cells cultured seven days with IL-2
Description: as §2, §3

Row | Sequence | generation of CTL lines from healthy HLA-A*0201+ donors [1] | generation of autologous peptide-specific CTL lines from patients [1] | A*02-positive CLL patients in whom the peptide is a tumor-associated antigen [2] | recognition of CLL cells from A*02-negative patients by peptide-specific T cells [2] | recognition of CLL cells from A*02-positive patients by peptide-specific T cells [2] | Evaluable donors with clearly positive T-cell responses [3] | Evaluable stimulations with clearly positive T-cell responses [3] | patients with significant levels of peptide-specific T cells [4] | median numbers of positively stained CTL compared to responses to Influenza Matrix recall-antigen [5] | samples with significant (>20) CTL responses against peptide [5] | # of positively stained spots (IFN-γ ELISPOT) [5] | lysis of HLA-A2-negative targets and normal hematopoietic cells by peptide-specific CTL lines [6] | recognition of allogeneic and autologous PBMC from healthy donors by peptide-specific T cells [6] | recognition of bone marrow cells by peptide-specific T cells [6] | recognition of CD34-positive bone-marrow-derived progenitor cells by peptide-specific T cells [6] | # of positively stained spots (IFN-γ ELISPOT) [7]
1 | ALCNTDSPL (listed as Homo sapiens) [ILR2] | CTL lines could be generated | could be generated eliciting efficient cytotoxic activity | 100% | not recognized in any case (0/4) and 0/2 A*02-negative target cells were recognized | recognized in all cases (4/4); also recorded: CLL cells from 3/3 A*02-positive patients were recognized | 1 | 1 | 40% | 55% | 56% | 4 per 105 PBMC and 45 per 105 PBMC and 65 per 105 PBMC and 128 per 105 PBMC and 67 per 105 PBMC and 23 per 105 PBMC and 27 per 105 PBMC and 78 per 105 PBMC and 56 per 105 PBMC and 0 per 105 PBMC (5×) and 2 per 105 PBMC and 57 per 105 PBMC | spared | not recognized | not recognized | not recognized | 0 per 105 PBMC (5×) and 3 per 105 PBMC (2×) and 2 per 105 PBMC and 4 per 105 PBMC (3×) and 5 per 105 PBMC (2×) and 6 per 105 PBMC and 7 per 105 PBMC
2 | LLAARAIVAI (listed as Homo sapiens) [ILR1] | CTL lines could be generated | could be generated eliciting efficient cytotoxic activity | 100% | recognized in any case (0/2) and 0/4 A*02-negative target cells were recognized | recognized-in-all cases (3/3); also recorded: CLL cells from 4/4 A*02-positive patients were recognized | 5 | 29 | 50% | 76% | 60% | 4 per 105 PBMC and 56 per 105 PBMC (2×) and 77 per 105 PBMC and 88 per 105 PBMC and 122 per 105 PBMC and 45 per 105 PBMC and 35 per 105 PBMC and 0 per 105 PBMC (4×) and 1 per 105 PBMC and 2 per 105 PBMC and 3 per 105 PBMC and 68 per 105 PBMC and 100 per 105 PBMC and 83 per 105 PBMC and 121 per 105 PBMC and 93 per 105 PBMC | spared | not recognized | not recognized | not recognized | 0 per 105 PBMC (5×) and 3 per 105 PBMC (2×) and 2 per 105 PBMC and 4 per 105 PBMC (3×) and 5 per 105 PBMC (2×) and 6 per 105 PBMC and 7 per 105 PBMC
